In US20180153842A1, “AMINO ACID SUPPLEMENTATION FOR A HEALTHY MICROBIOTA ECOSYSTEM” (NESTEC S.A., priority 2003, published 2018):

Experiments:
Type in all cases: in vivo, Sprague-Dawley rats
Settings in all cases: 5% DSS in drinking water for 9 days then 2% for 18 days, feces
Enterobacteria = test: fecal Enterobacteria count in rats
Description: (§1) The animal experiment was conducted as follows: Male Sprague-Dawley rats (n=32) aged 10 months were randomly distributed into 4 experimental groups (described below). During an 8 days acclimatization period, rats had free access to tap water and received a control diet or diets supplemented in amino acids as described below. After this adaptation period, Dextran Sulfate Sodium (DSS)-treated rats received 5% DSS (w/v) in their drinking water for the first 9 days of the experiment and 2% DSS for the following 18 days to induce a chronic colitis.
(§2) ii) Group “DSS”: rats were fed ad libitum with the control diet. They received DSS (free access) dissolved in their drinking water as previously described.
(§3) At the end of the experiment, fecal samples were collected from animals with a sterile spoon into sterile tubes, frozen (liquid nitrogen) in 10% glycerol and then stored at −80° C. until analysis. The fecal microbiota was analyzed quantitatively for Enterobacteria, Bacteroides, Enterococci, Lactobacilli and Bifidobacteria species according to standard methods. Bacteria were counted using selective or semi-selective media. The counts were expressed as log (base 10) cfu/g feces with a lower detection limit of 3.30 log cfu/g and 5.50 log cfu/g of feces for Bacteroides.
(§4) Data are expressed as mean±SEM. […]

Bacteroides = test: fecal Bacteroides count in rats
Description: as §1, §2, §3, §4

Lactobacilli = test: fecal Lactobacilli count in rats
Description: as §1, §2, §3, §4

Enterococci = test: fecal Enterococci count in rats
Description: as §1, §2, §3, §4

Enterobacteria counts compared to controls (Enterobacteria): significantly decreased
Bacteroides counts compared to controls (Bacteroides): increased
Lactobacilli counts compared to controls (Lactobacilli): significantly decreased
Enterococci counts compared to controls (Enterococci): significantly decreased
Substance: Dextran Sulfate Sodium [DSS]
